Data: article PMC10726475, “Atypical N-Alkyl to N-Noralkoxy Switch in a Dual cSRC/BCR-ABL1 Kinase Inhibitor Improves Drug Efflux and hERG Affinity” (ACS Medicinal Chemistry Letters, 2023)
Values joined by “and” are separate entries in the source; they are usually repeats but may differ in a detail not shown here. Equal values may be shown once. Read-outs that look alike come from different tables or passages of the source. Blank lines part the entries; values can stand above or below the molecule they belong to.

Experiments:
[1] = cited from earlier work
[2] = logD7.4 by shake-flask method; format: physicochemical; details: pH 7.4
[3] = Solubility in aqueous buffer at pH 7.4; format: physicochemical; details: aqueous buffer at pH 7.4, n = 1; read-out: aq sol.
[4] = pKa determination by pH-metric method; format: physicochemical
Method: Figure 3 Matched molecular pair (MMP) analysis on the 2-methoxyphenoxy-propyl-N-methylpiperazine scaffold and pKa values of related δ-alkoxy substituted amines. (A) MMP analysis of a bosutinib fragment. All measurements were assayed by Pharmaron Inc., and values presented represent the mean of n = 2 technical replicates, unless otherwise specified. logD7.4 was determined by the shake-flask method. […] (B) Reported[54] pKa values of related dimethylamines highlighting similarities in pKa values of δ-alkoxy substitution patterns. TEXT PRINTED IN THE PICTURE: (A) 17: logD7.4: 0.9; Aq. Sol. (μM): 277; pKa1: 4.2; pKa2: 8.1 | (A) 18: logD7.4: 1.0; Aq. Sol. […]
Inc. using methods previously derscribed.1 […]
Shedlovsky extrapolation for the pH-metric pKa method. […]

in vitro = details: human, Caco-2
P-gp (MDR1) = assay: in vitro; details: dog, MDCK-MDR1
Caco-2 cells = assay: Caco-2 cell permeability
MDCKII-MDR1 cells = assay: MDCKII-MDR1 cell permeability
KU812 cells = assay: Cell viability assay (CellTiter-Glo), KU812; format: cell-based, human; details: read-out: IC50 (72 h), KU812 Cell Line, mean ± SEM, n = 3, unadjusted for FBS
MEG-01 cells = assay: Cell viability assay (CellTiter-Glo), MEG-01; format: cell-based, human; details: read-out: IC50 (72 h), MEG-01 Cell Line, mean ± SEM, n = 3, unadjusted for FBS
SUP-B15 cells = assay: Cell viability assay (CellTiter-Glo), SUP-B15; format: cell-based, human; details: read-out: IC50 (72 h), SUP-B15 Cell Line, mean ± SEM, n = 3, unadjusted for FBS
Molt-4 cells = assay: Cell viability assay (CellTiter-Glo), Molt-4; format: cell-based, human; details: read-out: IC50 (72 h), Molt-4 Cell Line; 72 h, BCR-ABL1 negative
[5] = pH-metric method, range -12, read-out: pKa1

SMILES: NO [hydroxylamine]
pKa ([1]; simple hydroxylamine): 5.9

logD at 2 h [2]: 0.9
solubility [3]: > 250 µM and 277 µM
pKa ([4]; pH 2, pH-metric method, range pH 2-12, read-out: pKa2): 8.1
pKa [4, 5]: 4.2
SMILES: COc1ccccc1OCCCN1CCN(C)CC1 [compound 17]

SMILES: CN(C)CCCO [compound 21]
ΔpKa ([1]; relative to simple tertiary amine 19, δ-position substituent): −0.9

SMILES: O=[N+]([O-])c1ccc2c(c1)Cc1ccccc1-2 [2-Nitrofluorene]
Count (# of wells) (Salmonella strain TA98; TA98+S9, 3.0E-05 M): 28
Count (# of wells) (Salmonella strain TA98; TA98-S9, 3.0E-05 M): 30
Count (# of wells) (Salmonella strain TA100; TA100+S9, 3.0E-05 M): 0
Positive Significance (- to +++) (Salmonella strain TA100; TA100+S9, 3.0E-05 M): -
Count (# of wells) (Salmonella strain TA100; TA100-S9, 3.0E-05 M): 2
Positive Significance (- to +++) (Salmonella strain TA100; TA100-S9, 3.0E-05 M): -
Count (# of wells) (Salmonella strain TA1535; TA1535+S9, 3.0E-05 M): 0
Positive Significance (- to +++) (Salmonella strain TA1535; TA1535+S9, 3.0E-05 M): -
Count (# of wells) (Salmonella strain TA1535; TA1535-S9, 3.0E-05 M): 0
Positive Significance (- to +++) (Salmonella strain TA1535; TA1535-S9, 3.0E-05 M): -
Count (# of wells) (Salmonella strain TA1537; TA1537+S9, 3.0E-05 M): 2
Positive Significance (- to +++) (Salmonella strain TA1537; TA1537+S9, 3.0E-05 M): -
Count (# of wells) (Salmonella strain TA1537; TA1537-S9, 3.0E-05 M): 6
Positive Significance (- to +++) (Salmonella strain TA1537; TA1537-S9, 3.0E-05 M): + (weak positive, if P < 0.05)

Papp A→B at 2 h, 5 μM (in vitro): 0.34 ×10⁻⁶ cm/s
Papp B→A at 2 h, 5 μM (in vitro): 15.6 ×10⁻⁶ cm/s
efflux ratio at 2 h, 5 μM (in vitro): 45.6
recovery (in vitro): 103%
Papp A→B at 2 h, 1 μM (P-gp (MDR1)): 0.26 ×10⁻⁶ cm/s
Papp B→A at 2 h, 1 μM (P-gp (MDR1)): 10.2 ×10⁻⁶ cm/s
efflux ratio at 2 h, 1 μM (P-gp (MDR1)): 38.6
recovery (P-gp (MDR1)): 96.3%
Recovery% (BL-AP) (Caco-2 cells): 101.40%
Recovery% (BL-AP) (MDCKII-MDR1 cells): 92.45%
SMILES: C[C@H]1O[C@@H](O[C@H]2[C@@H](O)C[C@H](O[C@H]3[C@@H](O)C[C@H](O[C@H]4CC[C@@]5(C)[C@H](CC[C@@H]6[C@@H]5C[C@@H](O)[C@]5(C)[C@@H](C7=CC(=O)OC7)CC[C@]65O)C4)O[C@@H]3C)O[C@@H]2C)C[C@H](O)[C@@H]1O [Digoxin]

SMILES: N.N.[Cl][Pt][Cl] [Cisplatin, cisplatin]
IC50 (KU812 cells): 1500 ± 103 nM
IC50 (MEG-01 cells): 5100 ± 318 nM
IC50 (SUP-B15 cells): 987 ± 36 nM
IC50 (Molt-4 cells): 1340 ± 89 nM

logD at 2 h [2]: 1
solubility [3]: > 250 µM and 287 µM
pKa [4, 5]: 7.4
ΔpKa ([4]; terminal N-methylamine of 18 relative to 17): −0.7
SMILES: COc1ccccc1OCCON1CCN(C)CC1 [compound 18]
